What was measured:
[1] = Physical properties of F-tert-butylcyclohexane; type: physicochemical
From the text: Oxycyte™ is based on the perfluorocarbon F-tert-butylcyclohexane, a saturated alicyctic PFC (molecular formula C10F20) and can be used as a PFC composition in the methods and uses described herein. Physical properties of F-tert-butylcyclohexane are as follows: […]

[2] = Lipophilicity of the PFC; type: physicochemical
From the text: Circulation of the perflurocarbon liquid can be employed so that the patient floats without constraints, alleviating pain associated with usual system of treatment. As the liquid is continuously circulated, external heating or cooling of the fluid can be employed in order to maintain a comfort level for the patient. The fluid is preferably filtered to assure a biologically inert and/or sterile liquid environment for the patient. Additionally, a gas mixture containing 0 to 100% oxygen from (with adequate controls and precautions for ultra-ambient levels) is bubbled in the circulating PFC to supply oxygen to the patient's skin. PFCs are excellent transporters of oxygen and carbon dioxide; being that the PFCs are slightly lipophilic at body temperature and would help in the transport of oxygen into and removal of carbon dioxide from the skin tissue, accelerating the healing process.

Density [1]: 1.97 g/mL | Kinematic Viscosity [1]: 5.378 cP | Vapor Pressure ([1]; @25° C.): 3.8 mmHg | Vapor Pressure ([1]; @37° C.): 4.4 mmHg | Lipophilicity ([2]; at body temperature): only slightly lipophilic | Lipophilicity ([2]; at room temperature): not lipophilic
Compound: FC(F)(F)C(C(F)(F)F)(C(F)(F)F)C1(F)C(F)(F)C(F)(F)C(F)(F)C(F)(F)C1(F)F [F-tert-butylcyclohexane, perfluoro-tert-butylcyclohexane]
